# Assay results: patent US10172805B2, “Prolonged release formulations comprising an 2-oxo-1-pyrrolidine derivative” (UCB BIOPHARMA SPRL, priority 2008, dated 2019)
# Key:
# mice [1] = assay: chemically induced seizures in mice (pentylenetetrazol); format: in vivo; conditions: i.p. 30 min before seizure induction; higher ED50 values than audiogenic
# Protocol: The dose was selected based on dose-effect curves in saline-treated animals as the convulsive dose inducing clonic convulsions of all four extremities in 97% of the animals. Immediately after administration of the chemoconvulsant, the mice were placed individually in small plastic cages (25 13 8 cm) and observed for the presence of clonic convulsions in all four extremities, for 60 min. The occurrence of tonic convulsions (hindlimb extension) and mortality was also recorded during this interval. The proportion of mice protected against clonic convulsions was calculated and used as the end point for anticonvulsant activity.
# amygdala-kindled rats = assay: fully amygdala-kindled rats; format: in vivo, rat; conditions: for dose significantly reducing the after-discharge duration: brivaracetam at highest dose tested, levetiracetam inactive up to stated dose
# BCS classification = format: physicochemical
# Protocol: Considering Levetiracetam, Brivaracetam and Seletracetam are classified as BCS I, in order to achieve a prolonged therapeutic plasmatic drug level the resulting in vitro dissolution (USP<711> apparatus n°2) in a buffered aqueous media has to show a drug release of no more than 40% after 1 hour of dissolution, of 25% -80% after 4 hours of dissolution and of no less than 80% after 16 hours of dissolution. Preferably, a profile of no more than 35% after 1 hour of dissolution, of 35% -75% after 4 hours of dissolution and of no less than 80% after 16 hours of dissolution. More preferably a profile of no more than 30% after 1 hour of dissolution, of 45% -70% after 4 hours of dissolution and of no less than 80% after 16 hours of dissolution.
# rat hippocampal slices [2] = assay: epileptiform responses in hippocampal slices induced by high-K+/low-Ca2+ fluid (HKLCF); format: cell-based, Sprague-Dawley rats; set-up: rate of spontaneous field bursting: dose or concentration left out as unconfirmed; conditions: for evoked epileptiform responses (PS1 amplitude, repetitive PSs) in CA3 area: HKLCF perfusion, fimbrial stimulation
# Protocol: The effect of brivaracetam on epileptiform responses induced by high-K+/low-Ca2+ concentrations or by bicuculline was examined in transverse hippocampal slices prepared from Sprague-Dawley rats according to previously reported standard procedures. The epileptiform responses were induced by passing from a normal perfusion of artificial cerebrospinal fluid (ACSF) (K+3 mM; Ca2+2.4 mM) to either high-K+/low-Ca2+ fluid (HKLCF) (K+7.5 mM; Ca2+0.5 mM) or to […] bicuculline methiodide (BMI)-containing ACSF.
# Extracellular field potentials (FPs) were recorded in the CA3 area of the slices with 2 M NaCl-filled glass microelectrodes. The evoked FPs were recorded at 10-min intervals in response to fimbrial stimulation with constant current rectangular pulses that elicit a single population spike (PS) of 50-75% of the maximal amplitude when the slice is in ACSF. In the HKLCF model, 2 min of spontaneous activity were also recorded, in the middle of each 10-min interval between the recordings of evoked responses.
# Either brivaracetam or levetiracetam was added to the bathing fluid of the slices 20 min before shifting from ACSF to either HKLCF or […] BMI-containing ACSF, and was kept in the perfusion fluid throughout the experiment.
# [3] = system: patients with post-herpetic neuralgia; assay: treatment of patients with post-herpetic neuralgia; format: in vivo, human
# Protocol: (§1) Brivaracetam is effective in the treatment of epilepsy. A clinical trial evaluated the efficacy and safety of Brivaracetam (5, 20 and 50 mg per day) in the adjunctive treatment of adult patients with refractory partial onset seizures, with or without secondary generalization. Brivaracetam is also effective in the treatment of patients with post-herpetic neuralgia.
# mice [4] = assay: corneal kindling of mice; format: in vivo
# [5] = system: adult patients with refractory partial onset seizures; assay: clinical studies, adjunctive treatment of partial onset seizures (epilepsy); format: in vivo, human
# Protocol: as §1
# Seletracetam is effective in the treatment of epilepsy. Two studies were conducted with Seletracetam in epilepsy evaluating the efficacy and safety of Seletracetam in the adjunctive treatment of partial onset seizures in highly refractory adult patients currently receiving up to three concomitant anti-epileptic drugs.
# mice [6] = assay: maximal electroshock in mice; format: in vivo; conditions: i.p. 30 min before seizure induction; higher ED50 values than audiogenic
# [7] = system: genetically sound-sensitive male mice; assay: audiogenic seizures in mice; format: in vivo; conditions: audiogenic seizure-susceptible mice; i.p.
# Protocol: Audiogenic seizures in mice: Genetically sound-sensitive male mice (16-28 g; n=10 per group), responding with wild running, clonic and tonic convulsions to an acoustic stimulation, were used. Audiogenic seizures were induced by an acoustic stimulus (90 dB, 10-20 kHz) applied for 30 s. The mice were pretreated with either saline, brivaracetam (i.p., 30 min) or levetiracetam (i.p., 60 min), and the proportion of mice protected against clonic convulsions was used as the end point to assess anticonvulsant activity.
# GAERS rats = assay: spontaneous SWDs in GAERS rats; format: in vivo, rat
# [8] = A. J. GOWER et al., Eur. J. Pharmacol., 222, (1992), 193-203; cited from earlier work
# rat hippocampal slices [9] = conditions: introductory statement; cited from earlier work
# rat hippocampal slices [10] = conditions: introductory statement; cited from earlier work; remark: listed apart in the source
# water solubility = format: physicochemical
structure (smiles),measurement,setting,value
"CCC[C@@H]1CC(=O)N([C@@H](CC)C(N)=O)C1 [Brivaracetam, (2S)-2-[(4R)-2-oxo-4-propyl-pyrrolidin-1-yl] butanamide]",protection against clonic convulsions induced by pentylenetetrazol,mice [1],protected
same,dose from which significant suppression in motor-seizure severity is induced,amygdala-kindled rats,21.2 mg/kg
same,dose significantly reducing the after-discharge duration,amygdala-kindled rats,212.3 mg/kg
same,BCS class,BCS classification,BCS I
same,rate of spontaneous field bursting,rat hippocampal slices [2]; HKLCF,reduced the rate
same,"evoked epileptiform responses (PS1 amplitude, repetitive PSs) in CA3 area",rat hippocampal slices [2],reduced these epileptiform responses
same,efficacy in post-herpetic neuralgia,[3],effective
same,incidence of generalized motor seizures after termination of treatment,"mice [4]; continued corneal stimulations, group previously treated with the highest dose",persistent reduction
same,incidence of generalized motor seizures,"mice [4]; pretreatment during corneal kindling, levetiracetam at higher doses",significant reduction
same,efficacy in the treatment of epilepsy,[5],effective
same,protection against tonic hindlimb extension induced by a maximal electroshock,mice [6],protected
same,protection against clonic convulsions,[7],protected
same,dose from which spontaneous SWDs are significantly suppressed,GAERS rats,2.1 mg/kg
same,inhibition of spontaneous SWDs,GAERS rats; highest dose tested (67.9 mg kg−1),complete inhibition
CC[C@H](C(N)=O)N1CCCC1=O [(R)-(+)-α-ethyl-2-oxo-1-pyrrolidine-acetamide],activity in the treatment of epilepsy,[8],completely devoid of activity
"CC[C@@H](C(N)=O)N1CCCC1=O [Levetiracetam, (S)-(−)α-ethyl-2-oxo-1-pyrrolidineacetamide]",dose from which significant suppression in motor-seizure severity is induced,amygdala-kindled rats,170 mg/kg
same,dose significantly reducing the after-discharge duration,amygdala-kindled rats,> 1700 mg/kg
same,BCS class,BCS classification,BCS I
same,"evoked epileptiform responses (PS1 amplitude, repetitive PSs) in CA3 area",rat hippocampal slices [2],reduced these epileptiform responses
same,epileptiform responses induced by high-K+/low-Ca2+ concentrations,rat hippocampal slices [9],reduces epileptiform responses
same,epileptiform responses induced by bicuculline,rat hippocampal slices [10],reduces epileptiform responses
same,solubility,water solubility,> 500 mg/mL
same,protection against clonic convulsions,[7],protected
same,dose from which spontaneous SWDs are significantly suppressed,GAERS rats,5.4 mg/kg
"CC[C@@H](C(N)=O)N1C[C@H](C=C(F)F)CC1=O [Seletracetam, (2S)-2-[(4S)-4-(2,2-difluorovinyl)-2-oxo-pyrrolidin-1-yl]butanamide]",BCS class,BCS classification,BCS I
same,efficacy in the treatment of epilepsy,[5],effective
